Data as given in patent US20140314819A1, “COMPOSITIONS AND METHODS FOR TREATING DENTAL CONDITIONS” (HILL'S PET NUTRITION, INC., priority 2011, published 2014).

Assays:
[1] = system: oral substrate accumulation (dental plaque, calculus, and tooth stain); assay: Twelve month feeding study in cats: oral substrate accumulation by Logan-Boyce quantification; assay type: in vivo, domestic cats; details: composition comprising 1.2% lactic acid fed to cats for six months
Description: This study was designed to assess the effect of lactic acid on oral substrate accumulation (dental plaque, calculus, and tooth stain) in cats. Initially, all cats received a professional dental prophylaxis at this baseline using standard, well-established procedures. Six and twelve months later, dental substrate accumulation (dental plaque, calculus, and tooth stain) was quantified using the Logan-Boyce quantification method (See Logan E I, Boyce. Oral health assessment in dogs: parameters and methods. J. Vet Dent; 11(2):58-63.) Plaque is measured by applying a disclosing solution (2% aqueous eosin) to the animal's teeth. The teeth to be scored are divided into gingival and occlusal halves, and each half is assigned a separate numerical score for plaque coverage (percentage of the tooth area stained) and thickness (intensity of staining) The score for each tooth half is calculated by multiplying the coverage and thickness scores. The gingival and occlusal scores are then added together for a tooth score. The sum of the teeth scores is identified as the total tooth score, and the whole mouth mean score is calculated by averaging the total teeth scores for each animal. The plaque scoring method gives a number of 0-4 by the percentage of plaque coverage with 0=no plaque detected, 1=1-24% coverage, 2=25-49% coverage, 3=50-74% coverage and 4=75-100% coverage. […]

[2] = system: oral substrate accumulation (dental plaque, calculus, and tooth stain); assay: 28 day feeding study in dogs: oral substrate accumulation by Logan-Boyce quantification; assay type: in vivo, beagle dogs; details: dog food comprising 1.5% lactic acid fed to dogs for one month
Experimental: Plaque is measured by applying a disclosing solution (2% aqueous eosin) to the animal's teeth. The teeth to be scored are divided into gingival and occlusal halves, and each half is assigned a separate numerical score for plaque coverage (percentage of the tooth area stained) and thickness (intensity of staining) The score for each tooth half is calculated by multiplying the coverage and thickness scores. The gingival and occlusal scores are then added together for a tooth score. The sum of the teeth scores is identified as the total tooth score, and the whole mouth mean score is calculated by averaging the total teeth scores for each animal. The plaque scoring method gives a number of 0-4 by the percentage of plaque coverage with 0=no plaque detected, 1=1-24% coverage, 2=25-49% coverage, 3=50-74% coverage and 4=75-100% coverage. […] The whole mouth score is calculated by adding the teeth scores and dividing by the number of teeth scored. Calculus is measured by air-drying the teeth to be scored, dividing those teeth vertically into mesial, buccal, and distal thirds, and assigning each third a numerical score based on the percentage of calculus coverage with 0=no calculus detected, 1=1-24% coverage, 2=25-49% coverage, 3=50-74% coverage, and 4=75-100% coverage. […] The whole mouth score is calculated by adding the teeth scores and dividing by the number of teeth scored. […]

SMILES: CC(O)C(=O)O (centres unmarked) [lactic acid]
- Effect on formation of dental plaque, calculus and stain (in words) [1]: inhibits formation of dental plaque, calculus and stain
- Effect on tooth calculus and stain (in words) [2]: inhibits tooth calculus and stain
